Measurements from patent publication US20250276029A1, “ANTIBACTERIAL AND ANTIOXIDANT COMPOSITION CONTAINING GRAPE CALLUS CULTURE MEDIUM AS ACTIVE INGREDIENT” (INGR INCORPORATED, priority 2021, published 2025).

Key:
[1] = DPPH analysis (antioxidant effect); settings: 500 μg/ml
Experimental: DPPH analysis was performed to confirm the antioxidant effect of grape callus culture solution. Specifically, 0.2 mM DPPH (1,1-Diphenyl-2-picryhydrazyl) solution was prepared using 80% methanol, and then 180 μl of DPPH and 20 μl of the sample were well mixed and reacted at room temperature for 10 minutes, and then absorbance was measured with an ELISA reader at 517 nm. On the other hand, the sample was diluted based on epsilon-Viniferin content and treated in a well for comparison with Viniferin. In addition, the control method used DPPH reagent in the dilution solvent of the sample instead of the sample. Ascorbic acid was treated as a positive control.

[2] = tested on: P. acnes 3320 (KCTC 3320); experiment: MIC for acne bacteria, P. acnes 3320; format: cell-based, Propionibacterium acnes; settings: P. acnes 3320, 72 hours, anaerobic
Experimental: (§1) To confirm the antibacterial effect of grape callus culture solution on acne bacteria, Propionibacterium acnes (KCTC 3314, KCTC 3320, KCTC 5012) was cultured in RCM (Reinforced Clostridial Medium) at 37° C., anaerobic conditions. MIC is an index for measuring bacteriostatic characteristics of antibacterial substances, and after diluting the grape callus culture solution of the present invention to a concentration between […], the minimum concentration that inhibits the growth of three kinds of P. acnes was examined. Specifically, three kinds of P. acnes cultured in <3-1> were incubated in an incubator at 37° C. for 72 hours under anaerobic conditions in 5 ml of RCM liquid medium. In addition, a master plate was prepared at 8 concentrations by diluting ½ from the highest concentration to DW in 96 well plates. 50 μl of each diluted sample was then transferred to another 96-well plate. […] To measure the MIC, 0 hour OD600 nm was measured with a Microplate Reader. Then, after incubating the 96-well plate in 72-hour 37° C., incubation under anaerobic conditions, measuring OD600 nm for 72 hours with a Microplate Reader, subtracting the 0-hour OD value from the 72-hour OD value, the growth of three P. acnes according to control and sample concentration was compared, and antibacterial activity was confirmed through OD value comparison.

[3] = tested on: P. acnes 3314 (KCTC 3314); experiment: MIC for acne bacteria, P. acnes 3314; format: cell-based, Propionibacterium acnes; settings: P. acnes 3314, 72 hours, anaerobic
Experimental: as §1

[4] = tested on: P. acnes 5012 (KCTC 5012); experiment: MIC for acne bacteria, P. acnes 5012; format: cell-based, Propionibacterium acnes; settings: P. acnes 5012, 72 hours, anaerobic
Experimental: as §1

[5] = tested on: P. acnes 3320 (KCTC 3320); experiment: MBC analysis for acne bacteria, P. acnes 3320; format: cell-based, Propionibacterium acnes; settings: for MBC, concentration of highest growth inhibition effect: P. acnes 3320, 72-hour; for MBC, concentration of highest growth inhibitory effect: P. acnes 3320, 48 hr
Experimental: (§2) To confirm the antibacterial effect of grape callus culture solution on acne bacteria, Propionibacterium acnes (KCTC 3314, KCTC 3320, KCTC 5012) was cultured in RCM (Reinforced Clostridial Medium) at 37° C., anaerobic conditions. The Minimum Bactericidal Concentration (MBC) is an indicator measuring the bactericidal properties of an antibacterial substance, and the grape callus culture extract of the present invention was diluted to concentrations ranging […], and the minimum concentration inhibiting the growth of three strains of P. acnes was determined. Specifically, the minimum bactericidal concentration was measured using a plate measuring the MIC of <3-1>.

[6] = tested on: P. acnes 3314 (KCTC 3314); experiment: MBC analysis for acne bacteria, P. acnes 3314; format: cell-based, Propionibacterium acnes; settings: for MBC, concentration of highest growth inhibition effect: P. acnes 3314, 72-hour; for MBC, concentration of highest growth inhibitory effect: P. acnes 3314, 48 hr
Experimental: as §2

[7] = tested on: P. acnes 5012 (KCTC 5012); experiment: MBC analysis for acne bacteria, P. acnes 5012; format: cell-based, Propionibacterium acnes; settings: for MBC, concentration of highest growth inhibition effect: P. acnes 5012, 72-hour; for MBC, concentration of highest growth inhibitory effect: P. acnes 5012, 48 hr
Experimental: as §2

[8] = tested on: MNT-1 (human melanoma cell); experiment: MTT assay cytotoxicity, MNT-1 cells; format: cell-based; settings: 24 h
Experimental: (§3) MTT assay was performed using MNT-1, Raw264.7 cells to confirm the cytotoxicity of grape callus cultures, epsilon-Viniferin and delta-Viniferin. Specifically, Raw264.7 (murine macrophage) was incubated at 37° C., 5% CO2 in DMEM (High glucose) medium with 10% FBS and 1% gentamicine added, and MNT-1 (human melanoma cell) was incubated at 37° C., 5% CO2 in DMEM/MEM (High glucose) medium with 20% FBS and 1% gentamicine added. MNT-1 (10^4 cell/well) and Raw264.7 (2×10^4 cell/well) were each incubated in 96 wells, the samples were diluted with medium and treated in each well. After 24 hours, the MTT solution was treated at a concentration of 100 μg/mL and reacted at 37° C., 5% CO2 incubator for 1 hour. All cultures were then removed, 100 μl of acid-isopropanol was added to each well, and absorbance was measured with an ELISA reader at 570 nm. In addition, the sample was diluted based on epsilon-Viniferin content and treated in a well for comparison with Viniferin.

[9] = tested on: Raw264.7 (murine macrophage); experiment: MTT assay cytotoxicity, Raw264.7 cells; format: cell-based; settings: mouse, 24 h
Experimental: as §3

[10] = tested on: P. acnes 3320; experiment: Disc diffusion test; format: cell-based, Propionibacterium acnes; settings: for clear zone diameter, 1: column 1; for clear zone diameter, 2: column 2
Experimental: The disc diffusion test is an antibacterial agent sensitivity test method of bacteria, and if there is an antibacterial effect, a clear zone is formed around the disk paper, and the antibacterial ability can be measured through the degree of clear zone formation. Specifically, P. acnes 3320 was incubated in 5 ml of RCM liquid medium in an incubator at 37° C. for 72 hours under anaerobic conditions. Then, the bacteria diluted with 5×10^5 1×10^6 were moistened with a cotton swab and evenly smeared on RCM agar medium. The disk paper was placed on an agar plate, the disk paper was moistened with a sample of the stock solution, and then incubated in a 72-hour 37° C. incubator under anaerobic conditions, and then the clear zone size was measured using a Vernier Caliper.

SMILES	radical scavenging activity (DPPH) compared to the control group [1]	MIC, average concentration that inhibits growth [2]	MIC, average concentration that inhibits growth [3]	MIC, average concentration that inhibits growth [4]	MBC, concentration of highest growth inhibition effect [5]	MBC, concentration of highest growth inhibitory effect [5]	MBC, concentration of highest growth inhibition effect [6]	MBC, concentration of highest growth inhibitory effect [6]	MBC, concentration of highest growth inhibition effect [7]	MBC, concentration of highest growth inhibitory effect [7]	concentration showing no cytotoxicity (MTT) [8] [ng/mL]	concentration showing no cytotoxicity (MTT) [9] [ng/mL]	clear zone diameter, Average ([10]; ε-viniferin 5 μg) [mm]	clear zone diameter, 1 ([10]; ε-viniferin 5 μg) [mm]	clear zone diameter, 2 ([10]; ε-viniferin 5 μg) [mm]	clear zone diameter, Average ([10]; ε-viniferin 10 μg) [mm]	clear zone diameter, 1 ([10]; ε-viniferin 10 μg) [mm]	clear zone diameter, 2 ([10]; ε-viniferin 10 μg) [mm]
Oc1ccc(C2Oc3ccc(/C=C/c4cc(O)cc(O)c4)cc3C2c2cc(O)cc(O)c2)cc1 (stereo not drawn) [delta-Viniferin, trans-δ-Viniferin]	approximately 25%	did not show growth inhibition	did not show growth inhibition	did not show growth inhibition	did not show growth inhibition	did not show growth inhibition	did not show growth inhibition	did not show growth inhibition	did not show growth inhibition	did not show growth inhibition								
Oc1ccc(/C=C/c2cc(O)cc3c2C(c2cc(O)cc(O)c2)C(c2ccc(O)cc2)O3)cc1 (stereo not drawn) [epsilon-Viniferin, trans-ε-viniferin]	approximately 25%	did not show growth inhibition	did not show growth inhibition	did not show growth inhibition	did not show growth inhibition	did not show growth inhibition	did not show growth inhibition	did not show growth inhibition	did not show growth inhibition	did not show growth inhibition	≤ 20000	≤ 20000	0	0	0	0	0	0
